The values that follow come from EPA's ToxRefDB 2.

For data set [1], the system named is dog. The conditions noted are these: Subchronic oral toxicity in nonrodent, beagle, Gavage/Intubation, dose end: 91 day, group: systemic, systemic / organ weight / liver / absolute + systemic / clinical chemistry / alanine aminotransferase (alt/sgpt) / alanine aminotransferase….
For data set [2], the system named is rat. The conditions noted are these: Subchronic oral toxicity in rodents, sprague dawley, Gavage/Intubation, dose end: 91 day, group: systemic.
In data set [3] the test system is dog. The settings on record: Subchronic oral toxicity in nonrodent, beagle, Feed, dose end: 14 week, group: systemic.
Data set [4] relates to rat. The conditions noted are these: Prenatal developmental toxicity study, other, Oral, Gavage/Intubation, dose end: 15 GD.
Data set [5] deals with primate. The conditions noted are these: Sub-acute repeat dose toxicity, Oral, Gavage/Intubation, dose end: 14 day, group: systemic.
Data set [6] deals with primate. The settings on record: Sub-acute repeat dose toxicity; Oral; Gavage/Intubation; dose end: 7 day; group: systemic; systemic / pathology gross / stomach / erosion + systemic / pathology gross / stomach / foci + systemic / pathology gross / stomach / lesion….
In data set [7] the test system is primate. The conditions noted are these: Sub-acute repeat dose toxicity; Oral; Gavage/Intubation; dose end: 14 day; group: systemic; systemic / clinical chemistry / albumin / albumin + systemic / hematology / fibrinogen / fibrinogen + systemic / hematology / neutrophils / ….
In data set [8] the test system is mouse. The settings on record: Sub-acute repeat dose toxicity, Oral, Gavage/Intubation, dose end: 14 day, group: systemic.
Data set [9] relates to rat. The settings on record: Sub-acute repeat dose toxicity, sprague dawley, Oral, Gavage/Intubation, dose end: 14 day, group: systemic.
The test system of data set [10] is rat. The conditions noted are these: Carcinogenicity; fischer; Oral; Feed; dose end: 103 week; group: systemic; systemic / in life observation / body weight / body weight.
Data set [11] concerns mouse. The settings on record: Carcinogenicity, b6c3f1, Oral, Feed, dose end: 103 week, group: systemic.
Data set [12] relates to mouse. The conditions noted are these: Subchronic oral toxicity in rodents, b6c3f1, Feed, dose end: 13 week, group: systemic.
Data set [13] relates to rat. The settings on record: Subchronic oral toxicity in rodents, fischer, Feed, dose end: 13 week, group: systemic, systemic / pathology microscopic / kidney / inflammation.
Setting [14] is: systemic / clinical chemistry / [other] / [other] + systemic / clinical chemistry / alanine aminotransferase (alt/sgpt) / alanine ….
[15] abbreviates: systemic / clinical chemistry / alanine aminotransferase (alt/sgpt) / alanine aminotransferase (alt/sgpt) + systemic / clinical chemistry / ….
Setting [16] is: systemic / in life observation / food consumption / food efficiency + systemic / in life observation / body weight / body weight gain + ….
[17] abbreviates: group: developmental, developmental / developmental malformation / bone / fused.
[18] abbreviates: group: developmental, developmental / developmental malformation / bone / fused + developmental / developmental malformation / bone / incomplete ossification + ….
The mark [19] stands for this setting: group: maternal, systemic / in life observation / body weight / body weight gain + systemic / in life observation / food consumption / food consumption.
Setting [20] is: systemic / clinical chemistry / cytochrome p450, nos / cytochrome p450, nos + systemic / in life observation / clinical signs / abnormal ….
Setting [21] is: systemic / in life observation / food consumption / food consumption + systemic / clinical chemistry / cytochrome p450, nos / cytochrome ….
The mark [22] stands for this setting: systemic / clinical chemistry / [other] / [other] + systemic / clinical chemistry / 5' nucleotidase / 5' nucleotidase + systemic / clinical ….
[23] abbreviates: systemic / organ weight / liver / absolute + systemic / in life observation / clinical signs / salivation.
Where [24] appears, read: systemic / in life observation / body weight / body weight.
The mark [25] stands for this setting: systemic / in life observation / body weight / body weight + systemic / in life observation / mortality / mortality.
[26] abbreviates: systemic / in life observation / body weight / body weight gain + systemic / pathology microscopic / kidney / inflammation + systemic / ….

Where only a bound is given, the exact number is not on record here.

On to `CC(=O)NCCN1CCc2cc(NC(=O)c3ccccc3-c3ccc(C(F)(F)F)cc3)ccc2C1`, for which, in the data set on dog [1], the LEL is 1 mg/kg/day, the lowest-observed-adverse-effect level (LOAEL) (usually the lowest tested level that showed an adverse finding) was over 5 mg/kg/day, the NEL was under 1 mg/kg/day and the no-observed-adverse-effect level (NOAEL) (usually the highest tested level that showed no adverse finding) was at least 5 mg/kg/day. Besides, in the data set on rat [2] (setting [14]), the lowest-observed-adverse-effect level (LOAEL) was over 50 mg/kg/day and the NOAEL is at least 50 mg/kg/day. In the data set on rat [2] (setting [15]), the LEL was 1 mg/kg/day and the NEL is under 1 mg/kg/day.
Take `CCNc1nc(N)nc(Cl)n1` [Deisopropylatrazine]: the LOAEL was 18 mg/kg/day in the data set on dog [3] (systemic / in life observation / food consumption / food efficiency), 25 mg/kg/day with rat [4] (setting [17]) and 25 mg/kg/day in the data set with rat [4] (setting [19]). For the same molecule, the figures for the LEL in the data set on dog [3] (setting [16]), in the data set with rat [4] (setting [17]) and with rat [4] (setting [19]) were 18 mg/kg/day, 25 mg/kg/day and 25 mg/kg/day, respectively. In addition, the NEL with dog [3] (setting [16]) was 3.8 mg/kg/day; in the data set with rat [4] (setting [18]), 5 mg/kg/day; in the data set on rat [4] (setting [19]), 5 mg/kg/day. Moreover, the NOAEL with dog [3] (setting [16]) came to 3.8 mg/kg/day; in the data set on rat [4] (setting [18]), 5 mg/kg/day; in the data set on rat [4] (setting [19]), 5 mg/kg/day.
Regarding `CC(C)c1cccc(C(C)C)c1NC(=O)[N-]S(=O)(=O)c1cc(C(C)(C)O)co1.[Na+]`, the LEL in the data set on primate [5] (setting [20]) was determined as 300 mg/kg/day; with primate [6], 300 mg/kg/day; with primate [7] it was 100 mg/kg/day; in the data set on mouse [8] (systemic / in life observation / body weight / body weight gain + systemic / organ weight / liver / absolute), 150 mg/kg/day; in the data set with rat [9] (setting [23]), 100 mg/kg/day. Further, the NEL in the data set with primate [5] (setting [20]) was 100 mg/kg/day; in the data set on primate [6], under 300 mg/kg/day; in the data set on primate [7] it was under 100 mg/kg/day; in the data set on mouse [8] (setting [22]), 75 mg/kg/day; in the data set on rat [9] (systemic / organ weight / liver / absolute), 20 mg/kg/day. Moreover, the LOAEL with primate [5] (setting [21]) is over 500 mg/kg/day; in the data set on primate [6] it was over 300 mg/kg/day; in the data set on primate [7] it was over 100 mg/kg/day; in the data set with mouse [8] (setting [22]), over 300 mg/kg/day; with rat [9] (setting [23]), over 300 mg/kg/day. In addition, the no observed adverse effect level (NOAEL) in the data set on primate [5] (setting [21]) was at least 500 mg/kg/day; in the data set with primate [6] it was at least 300 mg/kg/day; with primate [7], at least 100 mg/kg/day; in the data set with mouse [8] (setting [22]), at least 300 mg/kg/day; in the data set on rat [9] (setting [23]) it was at least 300 mg/kg/day.
In the case of `CC(C)[C@@H]1CC[C@@H](C)C[C@H]1O` (racemic) [dl-Menthol], the LEL was found to be 375 mg/kg/day with rat [10], 300 mg/kg/day with mouse [11] (setting [24]), 1120 mg/kg/day in the data set on mouse [12] (systemic / pathology microscopic / kidney / inflammation + systemic / pathology microscopic / lymph node / hyperplasia) and 750 mg/kg/day in the data set with rat [13]. Also, the lowest-observed-adverse-effect level (LOAEL) with rat [10] was over 18700 mg/kg/day; with mouse [11] (setting [25]), over 600 mg/kg/day; in the data set on mouse [12] (setting [26]), over 2250 mg/kg/day; with rat [13] it was over 750 mg/kg/day. Further, the NEL in the data set with rat [10] is under 375 mg/kg/day; in the data set with mouse [11] (setting [24]) it was under 300 mg/kg/day; with mouse [12] (setting [26]), 562 mg/kg/day; with rat [13] it was 375 mg/kg/day. Moreover, the NOAEL with rat [10] is at least 18700 mg/kg/day; with mouse [11] (setting [25]), at least 600 mg/kg/day; in the data set on mouse [12] (setting [26]), at least 2250 mg/kg/day; with rat [13], at least 750 mg/kg/day.
